The values below come from patent publication US9718796B2, “Substituted benzoazepines as toll-like receptor modulators” (VENTIRX PHARMACEUTICALS, INC., priority 2011, dated 2017).

What is called IC50 is the midpoint of a concentration-inhibition curve.

For assay [1], the system named is IL-8 production in human PBMC stimulated with CL075. Kind of assay: Human PBMC assay: inhibition of IL-8 production stimulated with CL075 (ELISA). Format: cell-based. The note with it: 3 to 1000 nM antagonist, 2 hours before CL075 100 ng/ML (400 nM), overnight; one donor, duplicate wells. Here is the method: PBMCs contain a mixture of cells including monocytes and myeloid dendritic cells (mDCs) that express TLR8. […] The ability of TLR8 antagonists to inhibit […] in human PBMCs was evaluated. […] Data shown in FIG. 1 are a representative experiment from one donor evaluated in duplicate culture wells. […] At the end of the incubation, cells were centrifuged and cell culture supernatants were analyzed for IL-8 by ELISA (eBiosciene kit) per the manufacturer's instructions.
The experiment shown in FIG. 1 was repeated in multiple donors and with additional TLR8 antagonist molecules (see FIG. 2). […] Percent inhibition is shown on the y-axis and concentrations of TLR8 antagonists (3-1000 nM) are shown on the x-axis in FIG. 2.
In general terms: In an ELISA, binding on a coated surface is turned into a signal by an enzyme label.

For another assay, the target named is T1, hTLR8 (Homo sapiens, UniProt Q9NR97).
T1 construct: host or cells: HEK293 cells stably transfected with hTLR8
T1 sequence (Q9NR97 27-1041): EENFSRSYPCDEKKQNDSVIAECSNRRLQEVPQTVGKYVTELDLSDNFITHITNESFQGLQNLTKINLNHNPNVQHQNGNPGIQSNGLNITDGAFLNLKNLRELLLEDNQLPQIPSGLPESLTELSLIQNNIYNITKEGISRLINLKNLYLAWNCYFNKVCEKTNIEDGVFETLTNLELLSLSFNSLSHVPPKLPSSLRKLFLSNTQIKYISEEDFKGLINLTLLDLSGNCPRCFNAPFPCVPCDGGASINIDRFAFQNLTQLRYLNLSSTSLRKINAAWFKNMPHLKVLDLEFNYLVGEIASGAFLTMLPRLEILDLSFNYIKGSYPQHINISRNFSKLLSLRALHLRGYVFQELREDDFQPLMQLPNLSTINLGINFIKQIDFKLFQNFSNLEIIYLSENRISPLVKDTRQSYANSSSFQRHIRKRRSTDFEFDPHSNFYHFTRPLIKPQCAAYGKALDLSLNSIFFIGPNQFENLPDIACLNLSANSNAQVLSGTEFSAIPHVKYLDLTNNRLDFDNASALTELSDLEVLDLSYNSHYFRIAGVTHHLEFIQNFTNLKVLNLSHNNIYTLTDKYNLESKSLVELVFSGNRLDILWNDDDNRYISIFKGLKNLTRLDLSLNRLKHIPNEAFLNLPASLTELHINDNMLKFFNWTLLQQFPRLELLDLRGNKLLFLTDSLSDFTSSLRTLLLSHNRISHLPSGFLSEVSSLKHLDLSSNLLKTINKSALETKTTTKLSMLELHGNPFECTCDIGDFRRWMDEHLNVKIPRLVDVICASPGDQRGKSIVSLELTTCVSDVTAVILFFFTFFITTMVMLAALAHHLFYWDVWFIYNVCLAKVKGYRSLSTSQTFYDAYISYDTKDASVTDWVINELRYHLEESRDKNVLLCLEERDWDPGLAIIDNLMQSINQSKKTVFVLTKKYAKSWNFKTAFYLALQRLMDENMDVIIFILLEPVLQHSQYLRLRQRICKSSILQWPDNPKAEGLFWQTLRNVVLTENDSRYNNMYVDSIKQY
The experiment in a line: HEK-293 hTLR8 transfectant antagonist assay (NF-κB driven SEAP reporter). It counts as cell-based. The settings on record: hTLR8 reporter cells. Here is the method: The HEK-293 hTLR transfectant assay employs HEK293 cells stably transfected with various hTLRs and transiently co-transfected with a plasmid containing an NF-κB driven secreted embryonic alkaline phosphate (SEAP) reporter gene. Stimulation of TLRs activates their downstream signaling pathways and induces nuclear translocation of the transcription factor NF-κB. Reporter gene activity is then measured using a spectrophotometric assay. To measure antagonist activity, human embryonic kidney (HEK) cells (e.g., 293XL-hTLR8 cells available from InvivoGen, San Diego, Calif.) are prepared according to supplier's instructions and incubated with various concentrations of test compound overnight. The amount of induced […] is measured by reading the absorbance at 650 nm. The compounds of the invention have an MC50 of 25 μM or less, wherein MC50 is defined as the concentration at which 50% of maximum induction is seen. For the TLR8 antagonist assays, cells are transiently transfected with the reporter gene on Day 1 per the supplier's instructions. Antagonist compounds are added to the cultures on Day 2 followed by addition of a TLR8 agonist approximately 2 hours later. Cultures are incubated overnight and SEAP activity is measured on Day 3. In a typical assay, 50,000 HEK239 hTLR8 cells are seeded per culture well and transiently transfected with the SEAP reporter gene. Antagonists are added to cultures in culture medium and […] DMSO over a concentration range of 0.1 nanomolar to 10 micromolar. TLR8 agonists are added to cultures 2 hours later at a fixed concentration (e.g., 1 micromolar or 10 micromolar of Compound A) and cultures are then incubated for 16-24 hrs at 37° C. in a humidified CO incubator. Antagonists are also evaluated for activity in the absence of agonist. TLR8 antagonist activity was measured in a hTLR8 assay format, measuring IC50 values. […] IC50s were then calculated.

Setting [2] is: IC50, nM, vs. 3M002 10 μM, agonist 3M002 10 μM.
[3] abbreviates: IC50, nM, vs. VTX-378 1 μM, TLR8 agonist VTX-378 (Compound A) 1 μM.
Where [4] appears, read: TLR8 agonist VTX-378 (Compound A) 0.5 μM, read-out: IC50, nM, vs. VTX-378 0.5 μM.
The mark [5] stands for this setting: IC50, nM, vs. VTX-378 10 μM, TLR8 agonist VTX-378 (Compound A) 10 μM.
Where [6] appears, read: IC50, nM, vs. 3M002 1 μM, agonist 3M002 1 μM.

SMILES strings stand for the structures. Like-named read-outs stand apart in the source and are kept apart here.

As to `CCOC(=O)C1=Cc2cc(-c3ccc(N4CCOC4=O)cc3Cl)ccc2N=C(N)C1` [Compound 3387, Ethyl 2-amino-7-[2-chloro-4-(2-oxo-1,3-oxazolidin-3-yl)phenyl]-3H-1-benzazepine-4-carboxylate], the “IL-8 levels in human PBMC stimulated with CL075 (FIG. 1)” value (“IL-8 levels in human PBMC stimulated” below) in assay [1] was “reduced in a dose dependent fashion”. The IC50 at hTLR8 (setting [2]), at hTLR8 (setting [3]) and on hTLR8 (setting [4]) was less than 1000 nM each time.

`CCOC(=O)C1=Cc2cc(-c3ccc(C(=O)N4CCCC4)cc3)ccc2N=C(N)C1(C)C` [Compound 3348, Ethyl 2-amino-3,3-dimethyl-7-[4-(pyrrolidin-1-ylcarbonyl)phenyl]-3H-1-benzazepine-4-carboxylate]: the “IL-8 levels in human PBMC stimulated” value in assay [1] is “reduced in a dose dependent fashion”.

As to `CCOC(=O)Nc1ccc(-c2ccc3c(c2)C=C(C(=O)OCC)CC(N)=N3)c(Cl)c1` [Compound 3261, Ethyl 2-amino-7-{2-chloro-4-[(ethoxycarbonyl)amino]phenyl}-3H-1-benzazepine-4-carboxylate], in assay [1], the “IL-8 levels in human PBMC stimulated” value is “reduced in a dose dependent fashion”. Besides, the concentration for half-maximal inhibition (IC50) on hTLR8 (setting [2]), at hTLR8 (setting [3]) and on hTLR8 (setting [4]) was less than 1000 nM throughout.

Take `CCCN(CCC)C(=O)C1=Cc2cc(-c3ccc(C(=O)N4CCCC4)cc3)ccc2N=C(N)C1` [Compound 2987, 2-Amino-N,N-dipropyl-7-[4-(pyrrolidin-1-ylcarbonyl)phenyl]-3H-1-benzazepine-4-carboxamide]: the “IL-8 levels in human PBMC stimulated” value in assay [1] is reported as “reduced in a dose dependent fashion”.

As to `CCOC(=O)C1=Cc2cc(-c3c(C)cccc3C)ccc2N=C(N)C1` [Compound 3162], the concentration for half-maximal inhibition (IC50) at hTLR8 (setting [3]) and at hTLR8 (setting [4]) was 1000 to 10000 nM in each case.

In the case of `CCOC(=O)C1=Cc2cc(-c3ccc(S(=O)(=O)N(C)C)cc3)ccc2N=C(N)C1` [Compound 3055, Ethyl 2-amino-7-{4-[(dimethylamino)sulfonyl]phenyl}-3H-1-benzazepine-4-carboxylate], the concentration for half-maximal inhibition (IC50) at hTLR8 (setting [3]) was 1000 to 10000 nM; at hTLR8 (setting [5]) it was no less than 10000 nM.

Take `CCOC(=O)C1=Cc2cc(-c3cccc(Cl)c3Cl)ccc2N=C(N)C1` [Compound 3155, Ethyl 2-amino-7-(2,3-dichlorophenyl)-3H-1-benzazepine-4-carboxylate]: the IC50 on hTLR8 (setting [3]) is no less than 10000 nM; on hTLR8 (setting [4]) it was 1000 to 10000 nM.

As to `CCOC(=O)C1=Cc2cc(-c3ccccc3C(F)(F)F)ccc2N=C(N)C1` [Compound 3126, Ethyl 2-amino-7-[2-(trifluoromethyl)phenyl]-3H-1-benzazepine-4-carboxylate], the concentration for half-maximal inhibition (IC50) is less than 1000 nM on hTLR8 (setting [6]), 1000 to 10000 nM at hTLR8 (setting [2]), 1000 to 10000 nM on hTLR8 (setting [3]) and less than 1000 nM at hTLR8 (setting [4]).

As for `CCOC(=O)C1=Cc2cc(-c3ccc(NC(=O)N(C)C)cc3)ccc2N=C(N)C1` [Compound 3290, Ethyl 2-amino-7-{4-[(dimethylcarbamoyl)amino]phenyl}-3H-1-benzazepine-4-carboxylate], the IC50 on hTLR8 (setting [6]) is less than 1000 nM; on hTLR8 (setting [2]) it was 1000 to 10000 nM; on hTLR8 (setting [3]), 1000 to 10000 nM; at hTLR8 (setting [4]), less than 1000 nM.

`CCOC(=O)C1=Cc2cc(-c3cccc(C(F)(F)F)c3)ccc2N=C(N)C1` [Compound 3059, Ethyl 2-amino-7-[3-(trifluoromethyl)phenyl]-3H-1-benzazepine-4-carboxylate]: the IC50 is no less than 10000 nM on hTLR8 (setting [2]), 1000 to 10000 nM on hTLR8 (setting [3]) and no less than 10000 nM at hTLR8 (setting [5]).

`CCCN(CC(N)=O)C(=O)C1=Cc2cc(-c3ccc(C(=O)N4CCCC4)cc3C)ccc2N=C(N)C1` [Compound 3343, 2-Amino-N-(2-amino-2-oxoethyl)-7-[2-methyl-4-(pyrrolidin-1-ylcarbonyl)phenyl]-N-propyl-3H-1-benzazepine-4-carboxamide]: the 50% inhibitory concentration (IC50) on hTLR8 (setting [3]) and on hTLR8 (setting [4]) was less than 1000 nM each time.

On to `CCOC(=O)C1=Cc2cc(Nc3ccccc3)ccc2N=C(N)C1` [Compound 3097], for which the values for the half-maximal inhibitory concentration (IC50) at hTLR8 (setting [2]), on hTLR8 (setting [3]) and on hTLR8 (setting [4]) were 1000 to 10000 nM, 1000 to 10000 nM and less than 1000 nM, respectively.

In the case of `CCOC(=O)C1=Cc2cc(-c3ccc(C(=O)N4CCCC4)cc3)ccc2N=C2NCCC12` (stereo not shown) [Compound 3448], the “IL-8 levels in human PBMC stimulated” value in assay [1] is given as “reduced in a dose dependent fashion”. In addition, the half-maximal inhibitory concentration (IC50) at hTLR8 (setting [3]) and on hTLR8 (setting [4]) was less than 1000 nM throughout.

Regarding `CCOC(=O)C1=Cc2cc(-c3ccccc3C)ccc2N=C(N)C1` [Compound 3096, Ethyl 2-amino-7-(2-methylphenyl)-3H-1-benzazepine-4-carboxylate], the IC50 was 1000 to 10000 nM on hTLR8 (setting [3]) and no less than 10000 nM on hTLR8 (setting [5]).

As to `CCOC(=O)C1=Cc2cc(-c3ccc(N4CCCC4=O)cc3)ccc2N=C(N)C1` [Compound 3190, Ethyl 2-amino-7-[4-(2-oxopyrrolidin-1-yl)phenyl]-3H-1-benzazepine-4-carboxylate], the results for the IC50 on hTLR8 (setting [3]) and on hTLR8 (setting [4]) were 1000 to 10000 nM and less than 1000 nM, respectively.

Consider `NC1=Nc2ccc(-c3ccc(C(=O)N4CCCC4)cc3)cc2C=C(Br)C1` [Compound 3444], for which the IC50 on hTLR8 (setting [3]) and at hTLR8 (setting [4]) was less than 1000 nM throughout.

`CCCN(CC(N)=O)C(=O)C1=Cc2cc(-c3ccc(C(=O)N4CCCC4)cc3Cl)ccc2N=C(N)C1` [Compound 3342, 2-Amino-N-(2-amino-2-oxoethyl)-7-[2-chloro-4-(pyrrolidin-1-ylcarbonyl)phenyl]-N-propyl-3H-1-benzazepine-4-carboxamide]: the IC50 at hTLR8 (setting [2]), at hTLR8 (setting [3]) and at hTLR8 (setting [4]) was less than 1000 nM throughout.

As to `CCOC(=O)C1=Cc2cc(-c3ccc(C(=O)N(C)C)cc3)ccc2N=C(N)C1` [Compound 2937, Ethyl 2-amino-7-[4-(dimethylcarbamoyl)phenyl]-3H-1-benzazepine-4-carboxylate], the values for the half-maximal inhibitory concentration (IC50) at hTLR8 (setting [3]) and on hTLR8 (setting [5]) were less than 1000 nM and no less than 10000 nM, respectively.
